Data taken from publication PMC2156146 (The Journal of Cell Biology, 1999).

Target: T1, SRβ (30-kD β-subunit of the SRP receptor) in SR liposomes (Canis lupus, UniProt A0A8I3Q3L6)
T1 sequence (A0A8I3Q3L6 1-271): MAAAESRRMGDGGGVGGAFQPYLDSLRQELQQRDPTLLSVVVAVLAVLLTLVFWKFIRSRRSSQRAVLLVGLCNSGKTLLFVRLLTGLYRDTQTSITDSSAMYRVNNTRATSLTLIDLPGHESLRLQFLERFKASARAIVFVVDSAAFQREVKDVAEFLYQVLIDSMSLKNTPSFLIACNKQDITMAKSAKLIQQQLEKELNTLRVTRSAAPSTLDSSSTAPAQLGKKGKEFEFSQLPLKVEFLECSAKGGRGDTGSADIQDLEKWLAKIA
T1 sequence (P06625 1-638 partner): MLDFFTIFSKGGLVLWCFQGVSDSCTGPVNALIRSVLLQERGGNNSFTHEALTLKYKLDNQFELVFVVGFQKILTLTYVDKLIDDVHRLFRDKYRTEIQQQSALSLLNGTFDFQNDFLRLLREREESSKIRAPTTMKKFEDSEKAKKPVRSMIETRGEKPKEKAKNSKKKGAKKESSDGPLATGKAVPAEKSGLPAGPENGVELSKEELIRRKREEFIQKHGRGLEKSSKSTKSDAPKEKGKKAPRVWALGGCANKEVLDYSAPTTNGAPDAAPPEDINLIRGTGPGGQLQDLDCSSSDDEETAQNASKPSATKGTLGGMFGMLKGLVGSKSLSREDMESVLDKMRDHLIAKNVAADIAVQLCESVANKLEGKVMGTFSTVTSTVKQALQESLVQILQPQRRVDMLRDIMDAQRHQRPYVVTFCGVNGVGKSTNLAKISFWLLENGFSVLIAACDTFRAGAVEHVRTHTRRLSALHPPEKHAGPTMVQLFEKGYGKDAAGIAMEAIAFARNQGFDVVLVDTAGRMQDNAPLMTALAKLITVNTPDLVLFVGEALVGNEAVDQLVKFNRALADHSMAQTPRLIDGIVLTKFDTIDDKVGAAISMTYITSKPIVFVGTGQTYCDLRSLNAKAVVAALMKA
Experiment: UV cross-linking of alpha-[…]GTP, saturation, SDS-PAGE and PhosphorImaging
Format: binding

- Kd: 20 nM
Structure (SMILES): Nc1nc2c(ncn2[C@@H]2O[C@H](COP(=O)(O)OP(=O)(O)OP(=O)(O)O)[C@@H](O)[C@H]2O)c(=O)[nH]1 [GTP]
